The values below come from ChEMBL document CHEMBL1147585, “Potent imidazole and triazole CB1 receptor antagonists related to SR141716” (Bioorg Med Chem Lett, 2004).

For assay [1], the target named is T1, Cannabinoid receptor 1 (Homo sapiens, UniProt P21554). Description: Evaluated for binding affinity towards human Cannabinoid receptor 1.
The target of assay [2] is T1, Cannabinoid receptor 1. The experiment in a line: Evaluated for binding affinity towards human Cannabinoid receptor 1 at a concentration of 20 uM.

pKi: −log10 of the molar value.

T1 sequence (P21554 whole entry): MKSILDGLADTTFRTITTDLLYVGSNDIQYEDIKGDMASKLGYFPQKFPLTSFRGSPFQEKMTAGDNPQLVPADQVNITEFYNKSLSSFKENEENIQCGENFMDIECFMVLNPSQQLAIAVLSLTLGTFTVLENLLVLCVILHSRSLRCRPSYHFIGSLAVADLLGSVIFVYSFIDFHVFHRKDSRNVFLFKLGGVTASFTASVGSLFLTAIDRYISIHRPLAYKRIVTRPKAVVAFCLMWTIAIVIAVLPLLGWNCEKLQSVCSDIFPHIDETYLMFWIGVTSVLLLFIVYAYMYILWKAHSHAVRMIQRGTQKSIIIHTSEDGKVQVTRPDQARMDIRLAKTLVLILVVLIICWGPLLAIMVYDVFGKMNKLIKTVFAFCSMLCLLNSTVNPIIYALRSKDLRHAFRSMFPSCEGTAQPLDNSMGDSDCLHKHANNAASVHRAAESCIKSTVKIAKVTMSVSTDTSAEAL

As usually defined, the pKi is the Ki on a negative log10 scale, so that one unit is a factor of ten. Turning to `O=C(c1nc(-c2ccc(Cl)cc2)n(-c2ccc(Cl)cc2Cl)n1)N1CCN(c2cccc(C(F)(F)F)c2)CC1`, at Cannabinoid receptor 1 [1], the pKi is 7.49. `O=C(NC1CCN(Cc2ccccc2)C1)c1nc(-c2ccc(Cl)cc2Cl)n(-c2ccc(Cl)cc2)n1` (configuration not stated) showed a pKi at Cannabinoid receptor 1 [1] of 7.54. Take `Cc1c(C(=O)NCCc2ccc(F)cc2)nn(-c2ccc(Cl)cc2Cl)c1-c1ccc(Cl)cc1`: the pKi at Cannabinoid receptor 1 [1] was 7.04. At Cannabinoid receptor 1 [1], `C#Cc1c(C(=O)NN2CC3CCCC3C2)nc(-c2ccc(Cl)cc2Cl)n1-c1ccc(Cl)cc1` (configuration not stated) had a negative-log Ki (pKi) of 6.11. With `Cc1c(C(=O)Nc2ccncc2)nn(-c2ccc(Cl)cc2Cl)c1-c1ccc(Cl)cc1`, the pKi at Cannabinoid receptor 1 [1] was 7.07. The same measure, in the same setting: next, `COc1cc(Cl)ccc1-c1nc(C(=O)NN2CC3CCCC3C2)nn1-c1ccc(Cl)cc1Cl` (configuration not stated): 6.57. With `O=C(NN1CC2CCCC2C1)c1nc(-c2ccc(Cl)cc2Cl)n(-c2ccc(Cl)cc2)n1` (configuration not stated), the pKi at Cannabinoid receptor 1 [1] was 6.86. For `CC1CCC(NC(=O)c2nc(-c3ccc(Cl)cc3Cl)n(-c3ccc(Cl)cc3)n2)CC1` (configuration not stated), the pKi at Cannabinoid receptor 1 [1] was 7.03. The term inhibition denotes the drop in the measured response relative to a control, in per cent. High values mean a response far below the control, low ones a response near the control. `O=C(NN1CCCCCC1)c1nc(-c2ccc(Cl)cc2)n(-c2ccc(Cl)cc2Cl)n1` gave an inhibition on Cannabinoid receptor 1 [2] of 43%. Take `Cc1c(C(=O)NC2CCCCC2)nn(-c2ccc(Cl)cc2Cl)c1-c1ccc(Cl)cc1`: the pKi on Cannabinoid receptor 1 [1] was 7.38. As for `O=C(NN1CC2CCCC2C1)c1nc(-c2ccc(Cl)cc2Cl)n(-c2ccc(Cl)cc2)c1Br` (configuration not stated), the negative-log Ki (pKi) on Cannabinoid receptor 1 [1] is 7.96. Still for that read-out and setting: next, `Cc1c(C(=O)NN2CCCCCC2)nn(-c2ccc(Cl)cc2Cl)c1-c1ccc(Cl)cc1`: 7.85. At Cannabinoid receptor 1 [1], `Cc1c(C(=O)NN2CC3CCCC3C2)nn(-c2ccc(Cl)cc2Cl)c1-c1ccc(Cl)cc1` (configuration not stated) had a negative-log Ki (pKi) of 8.30.

`CC(NC(=O)c1nc(-c2ccc(Cl)cc2Cl)n(-c2ccc(Cl)cc2)n1)c1ccc(Cl)cc1` (configuration not stated) had a pKi on Cannabinoid receptor 1 [1] of 7.18.

Consider `N#Cc1c(C(=O)NN2CC3CCCC3C2)nc(-c2ccc(Cl)cc2Cl)n1-c1ccc(Cl)cc1` (configuration not stated), for which the pKi on Cannabinoid receptor 1 [1] is 8.05. Same read-out and setting: next, `O=C(NC1CCc2ccccc21)c1nc(-c2ccc(Cl)cc2Cl)n(-c2ccc(Cl)cc2)n1` (configuration not stated): 7.00. In the case of `Cc1c(C(=O)NCCO)nn(-c2ccc(Cl)cc2Cl)c1-c1ccc(Cl)cc1`, the inhibition on Cannabinoid receptor 1 [2] stood at 69%. At Cannabinoid receptor 1 [1], `Cc1c(C(=O)NC(C)C(C)C)nn(-c2ccc(Cl)cc2Cl)c1-c1ccc(Cl)cc1` (configuration not stated) gave a negative logarithm of the Ki (pKi) of 7.39. On to `Cc1c(C(=O)N(C)C2CCCCC2)nn(-c2ccc(Cl)cc2Cl)c1-c1ccc(Cl)cc1`, for which the negative-log Ki (pKi) at Cannabinoid receptor 1 [1] was 7.00. Molecule `O=C(NN1CC2CCCC2C1)c1cn(-c2ccc(Cl)cc2)c(-c2ccc(Cl)cc2Cl)n1` (configuration not stated) gave a pKi at Cannabinoid receptor 1 [1] of 7.18. The molecule `CN(C)CCNC(=O)c1nc(-c2ccc(Cl)cc2Cl)n(-c2ccc(Cl)cc2)n1` had an inhibition on Cannabinoid receptor 1 [2] of 49%. Regarding `O=C(NN1CCCCCC1)c1cn(-c2ccc(Cl)cc2)c(-c2ccc(Cl)cc2Cl)n1`, at Cannabinoid receptor 1 [1], the pKi was 7.11. Turning to `O=C(NN1CCCCC1)c1cn(-c2ccc(Cl)cc2)c(-c2ccc(Cl)cc2Cl)n1`, the pKi at Cannabinoid receptor 1 [1] was 7.07. The molecule `O=C(NC1CCCCC1)c1cn(-c2ccc(Cl)cc2)c(-c2ccc(Cl)cc2Cl)n1` gave a pKi at Cannabinoid receptor 1 [1] of 7.32. In the case of `CN(C)CCNC(=O)c1cn(-c2ccc(Cl)cc2)c(-c2ccc(Cl)cc2Cl)n1`, the inhibition on Cannabinoid receptor 1 [2] stood at 48%. On the same count and under the same terms, next, `Cc1c(C(=O)NCCN(C)C)nn(-c2ccc(Cl)cc2Cl)c1-c1ccc(Cl)cc1`: 70%. The molecule `Cc1c(C(=O)NC(C)c2ccc(Cl)cc2)nc(-c2ccc(Cl)cc2Cl)n1-c1ccc(Cl)cc1` (configuration not stated) gave a negative logarithm of the Ki (pKi) on Cannabinoid receptor 1 [1] of 7.48.
